Data published in US20240293326A1, “CONTROLLED RELEASE FORMULATIONS FOR THE TREATMENT OF MALARIA” (KARICI DIAGNOSTICS INC., priority 2018, published 2024).

Tests used:
[1] = In vitro Arte and Pf interaction / stability in SGF (FTIR, NMR, antioxidant capacity); format: physicochemical; conditions: SGF pH 1.5, 37° C., 2 h, one agent in the presence of the other
Protocol: Since both bioactive agents, Art and Pf will be used in a combination therapy in the same dosage form, there is a risk of molecular interactions to be considered. […] These interactions could also cause a moderate loss of activity due to the partial degradation of the endoperoxide bridge of artemisinin. […] After incubation, Arte was separated from Pf by decantation, washed and dried before FTIR and RMN analyses; whereas the Pf solution (in presence or not of Arte) was filtered and the antioxidant capacity was evaluated as previously described in the section of antioxidant properties. In vitro interaction of Arte with CMC-Pf was evaluated in SGF. Arte and CMC-Pf were incubated in SGF (pH 1.5, at 37° C.) separately or one in the presence of each other (FIG. 31).

[2] = Dissolution assay of tablets (release kinetics, SGF 2 h then SIF); format: physicochemical
Protocol: Dissolution assays of formulated monolithic tablets were done in simulated gastric fluid (SGF, pH 1.5) for 2 h and continued in simulated intestinal fluid (SIF, pH 6.8) as referred by USP method 40 (USP, 2017a).
The Pf (Pf, MD/Pf or CMS-Pf) release kinetics from different formulations (Pf, MD/Pf and CMS-Pf monolithic tablet dosage form) were recorded at 100 rpm and 37° C. using a Distek dissolution system 2100A (Betatek Inc., Markham, ON, Canada). At predetermined intervals, an established volume of samples (1 mL) was withdrawn from dissolution media, filtered (0.45 μm) and the released Pf was quantified by UV measurement at 280 nm.
CMS-Pf complexes were prepared as detailed above in Example 1. Briefly, CMS was dispersed at 8.5% in water. After homogenization and obtaining a homogenous suspension, an amount of 50 mL of CMS suspension was slowly added in 450 ml of Pf 21.5% previously dissolved in ethanol (60%). Similar operation was carried out for the CMS and for CMC (high viscosity) with a degree of substitution of 0.8. The final ratio Pf/carboxyl polymer (w/w) was respectively about of 96/4. The solutions were maintained under agitation at room temperature until spray-drying to obtain powders using the following parameters: 1) inlet temperature 150° C.; 2) outlet temperature 100° C.; 3) spray flow 500 L/h, and 4) aspirator setting at 38 m^3/h. During the drying process, the polymeric excipient/Pf suspension was continuously gently stirred to prevent sedimentation. The resulting powder was used to prepare monolithic tablets (12.5 mm diameter, 3.0 mm thickness) containing 400 mg of Pf by direct compaction. The kinetics of the drug release were recorded using the Distek™ dissolution (100 rpm) and the detection of Pf was monitored at 280 nm, first in a dissolution medium made of 1 L of SGF (pH 1.5) during 2 h. Then, the tablets were transferred in 1 L of SIF (pH 7.2) at 37° C.) (USP 32 method).
For each tablet, the dissolution was started in 1 L of SGF (pH 1.5) for 2h and followed in 1 L of SIF (pH 7.2) at 37° C., according to USP 32. The drug release kinetics were recorded using a Distek™ dissolution 2100A paddle system at 100 rpm.
The quantification of Pf was carried out at 280 nm, whereas the dosage of artemisinin was realized by spectrophotometry at 734 nm after filtration and dissolving artemisinin in the acetone/water (ratio 40:60) solvent containing ABTS (2,2′-azino-bis[3-ethylbenzothiazoline-6-sulphonate]).
Dissolution assay was done first in simulated gastric fluid (SGF, pH 1.5) for 2 h and then in simulated intestinal fluid (SIF, pH 6.8) as referred by USP method 40 (2017a). Release kinetics from different formulations were followed at 100 rpm and 37° C. using a Distek dissolution system 2100A (Betatek Inc., Markham, ON, Canada) with a Distek TCS 0200 (North Brunswick, NJ, USA). At predetermined intervals (0.5, 1, 2, 4, 6, 8 and10 h), released Pf and Arte were quantified using the appropriate method (described above).
For Pf dosage, a volume (5 mL) was withdrawn from dissolution media, properly filtered (0.45 μm) and diluted before absorbance measurement at 280 nm. To quantify released Arte, the insoluble precipitate was recuperated, washed several times to remove all Pf residues and quantified as previously described.
Dissolution assays was followed for each tablet first in simulated gastric fluid (SGF, pH 1.5) for 2 h and then continued in simulated intestinal fluid (SIF, pH 6.8) as referred by USP method 40 (USP, 2017c). Release kinetics from both formulation types (containing CMP-Pf or pCMC-Pf) were followed using a Distek dissolution system 2100A (Betatek Inc., Markham, ON, Canada) with a Distek TCS 0200 (North Brunswick, NJ, USA) at 100 rpm and 37° C. At predetermined intervals (0.5, 1, 2, 4, 6, 8, 10 and 12 h), released Pf and Arte from tablets were quantified by absorbancy at 280 nm (for Pf) and at 734 nm (for Arte, using ABTS•+ radical as probe reagent). […]

[3] = monolithic tablets with CMC-Pf or pCMC-Pf, Example 6

Degradation in SGF (FTIR, 1H NMR) ([1]; listed as Arte): No degradation
Degradation in SGF (FTIR, 1H NMR) ([1]; listed as artemisinin): no degradation
Time to completed release of Artemisinin ([2]; bi-layer tablet, Artemisinin 100 mg + Explotab layer, Example 3): 60 min
Art released after 2 h in SGF ([2]; monolithic tablet, 400 mg CMC/Pf + 100 mg artemisinin, Example 4): about 45%
Time to complete release of Arte ([2]; monolithic tablet, in SIF, Example 5): 8 h
Time to complete release of Art ([2]; monolithic tablet, Example 4): 8 h
Arte released after 2 h in SGF ([2]; monolithic tablet, Example 5): about 51%
Arte released after 2 h in SGF [2, 3]: about 51%
Time to complete release of Arte [2, 3]: 8 h
SMILES: C[C@@H]1CC[C@H]2[C@@H](C)C(=O)O[C@@H]3O[C@@]4(C)CC[C@@H]1[C@]32OO4 [Artemisinin]
